Data: patent US11571418B2, “Platinum compounds that inhibit constitutive STAT3 signaling and induce cell cycle arrest and apoptosis of malignant cells” (H. LEE MOFFITT CANCER CENTER AND RESEARCH INSTITUTE, INC., priority 2011, dated 2023)

Tests used:
Stat1 = biological target: T1, Stat1 (Mus musculus, UniProt P42225); experiment: In vitro Stat1 DNA-binding activity assay, EMSA with hSIE or MGFe probe; conditions: pre-incubated 30 min before probe
T1 construct: Nuclear extract preparation from NIH3T3 stimulated by rhIL-6, NIH3T3/hEGFR stimulated by rhEGF; endogenous in cells; host or cells: NIH3T3/hEGFR fibroblasts stimulated with rhEGF (nuclear extract)
T1 sequence (P42225 2-749 limits assumed): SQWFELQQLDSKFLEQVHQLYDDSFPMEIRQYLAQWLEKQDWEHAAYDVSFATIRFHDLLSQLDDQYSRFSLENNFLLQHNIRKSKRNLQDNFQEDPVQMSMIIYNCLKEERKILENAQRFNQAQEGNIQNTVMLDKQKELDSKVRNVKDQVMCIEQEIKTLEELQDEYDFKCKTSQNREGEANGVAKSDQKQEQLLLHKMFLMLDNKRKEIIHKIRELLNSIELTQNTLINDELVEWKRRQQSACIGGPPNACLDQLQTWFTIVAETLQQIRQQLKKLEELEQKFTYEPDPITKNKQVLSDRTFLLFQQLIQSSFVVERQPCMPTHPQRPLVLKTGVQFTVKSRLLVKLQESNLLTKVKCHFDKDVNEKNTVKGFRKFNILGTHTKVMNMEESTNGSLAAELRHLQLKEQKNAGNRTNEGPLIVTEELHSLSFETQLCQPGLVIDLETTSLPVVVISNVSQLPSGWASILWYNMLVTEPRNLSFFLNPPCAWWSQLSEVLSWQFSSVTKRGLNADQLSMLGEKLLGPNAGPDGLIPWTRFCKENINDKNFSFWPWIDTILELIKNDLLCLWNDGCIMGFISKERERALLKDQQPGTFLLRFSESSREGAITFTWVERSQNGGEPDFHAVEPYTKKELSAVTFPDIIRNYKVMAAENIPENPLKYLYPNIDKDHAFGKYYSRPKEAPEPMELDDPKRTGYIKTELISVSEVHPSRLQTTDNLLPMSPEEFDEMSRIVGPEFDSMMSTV
Protocol: (§1) FIGS. 1A-1E. Inhibition of in vitro Stat3 DNA-binding activity by a platinum complex. Nuclear extracts or cell lysates containing activated Stat1, Stat3 and Stat5, or E2F1 prepared from NIH3T3/hEGFR that are stimulated with EGF or Sf-9 insect cells that are infected with baculovirus expressing Stat1, Stat3, Stat5, or E2F1, respectively, were treated with or without the indicated concentrations of platinum complex, PLATINUM-401 or Cisplatin, for 30 min at room temperature prior to incubation with radiolabeled oligonucleotide probes, and subjected to EMSA analysis. (FIG. 1A) (i) Stat1 and Stat3 binding activities to hSIE probe, (ii) Stat1 and Stat5 binding activities to MGFe probe, and (iii) plot of % oligonucleotide probe-STAT:STAT complexes versus concentration of PLATINUM-401. […] Positions of STAT: STAT-DNA complexes in gel are labeled. In (A) to (C), the control lanes represent DMSO (vehicle)-treatment.
(§2) Nuclear extract preparation and gel shift assays—Nuclear extract preparation from NIH3T3 stimulated by rhIL-6, NIH3T3/hEGFR stimulated by rhEGF, v-Src-transformed fibroblasts (NIH3T3/v-Src) or tumor cell lines and electrophoretic mobility shift assay were carried out as previously described (Turkson et al., 1998; Garcia et al., 1997; Yu et al., 1995). The ^32P-labeled oligonucleotide probes used are hSIE (high affinity sis-inducible element from the c-fos gene, m67 variant, 5′-[…]) (SEQ ID NO:1) that binds Stat1 and Stat3 (Garcia et al., 1997; Wagner et al., 1990) and MGFe (mammary gland factor element from the bovine β-casein gene promoter, 5′-AGATTTCTAGGAATTCAA) (SEQ ID NO:2) for Stat1 and Stat5 binding (49,50). Except where indicated, inhibitor compound was pre-incubated with the nuclear extract for 30 min at room temperature prior to incubation with radiolabeled probe.
Compounds from the NCI 2000 diversity set were screened for inhibition of Stat3 signaling in an in vitro DNA-binding activity assay based on analysis by electrophoretic mobility shift assay (EMSA). […]

E2F1 = biological target: T2, E2F1 (Homo sapiens, UniProt Q01094); experiment: In vitro E2F1 DNA-binding activity assay, EMSA with DHFR promoter probe; conditions: cell lysates pre-incubated with compound before DHFR promoter probe
T2 construct: made in house; host or cells: Sf-9 insect cells infected with baculovirus
T2 sequence (Q01094 whole entry, species assumed): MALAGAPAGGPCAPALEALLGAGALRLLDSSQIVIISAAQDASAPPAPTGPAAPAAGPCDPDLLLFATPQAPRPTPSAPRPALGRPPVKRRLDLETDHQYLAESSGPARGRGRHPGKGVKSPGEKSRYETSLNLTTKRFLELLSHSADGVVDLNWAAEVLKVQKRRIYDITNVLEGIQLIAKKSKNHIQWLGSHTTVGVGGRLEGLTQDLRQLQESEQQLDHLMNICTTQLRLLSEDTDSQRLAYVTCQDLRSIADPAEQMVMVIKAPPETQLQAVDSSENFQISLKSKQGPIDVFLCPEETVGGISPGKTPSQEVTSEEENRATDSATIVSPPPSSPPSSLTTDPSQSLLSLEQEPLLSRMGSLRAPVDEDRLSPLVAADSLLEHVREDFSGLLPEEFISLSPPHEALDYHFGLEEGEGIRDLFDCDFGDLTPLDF
Protocol: as §1
In control studies, the effect of PLATINUM-401 was evaluated on the DNA-binding activity of the E2F1 protein that is unrelated to STATs.

Stat3 [1] = biological target: T3, Stat3 (Mus musculus, UniProt P42227); conditions: Turkson et al., 2004b; cited from earlier work
T3 construct: Nuclear extract preparation from NIH3T3 stimulated by rhIL-6, NIH3T3/hEGFR stimulated by rhEGF; endogenous in cells; host or cells: NIH3T3/hEGFR fibroblasts stimulated with rhEGF (nuclear extract)
T3 sequence (P42227 2-770 limits assumed): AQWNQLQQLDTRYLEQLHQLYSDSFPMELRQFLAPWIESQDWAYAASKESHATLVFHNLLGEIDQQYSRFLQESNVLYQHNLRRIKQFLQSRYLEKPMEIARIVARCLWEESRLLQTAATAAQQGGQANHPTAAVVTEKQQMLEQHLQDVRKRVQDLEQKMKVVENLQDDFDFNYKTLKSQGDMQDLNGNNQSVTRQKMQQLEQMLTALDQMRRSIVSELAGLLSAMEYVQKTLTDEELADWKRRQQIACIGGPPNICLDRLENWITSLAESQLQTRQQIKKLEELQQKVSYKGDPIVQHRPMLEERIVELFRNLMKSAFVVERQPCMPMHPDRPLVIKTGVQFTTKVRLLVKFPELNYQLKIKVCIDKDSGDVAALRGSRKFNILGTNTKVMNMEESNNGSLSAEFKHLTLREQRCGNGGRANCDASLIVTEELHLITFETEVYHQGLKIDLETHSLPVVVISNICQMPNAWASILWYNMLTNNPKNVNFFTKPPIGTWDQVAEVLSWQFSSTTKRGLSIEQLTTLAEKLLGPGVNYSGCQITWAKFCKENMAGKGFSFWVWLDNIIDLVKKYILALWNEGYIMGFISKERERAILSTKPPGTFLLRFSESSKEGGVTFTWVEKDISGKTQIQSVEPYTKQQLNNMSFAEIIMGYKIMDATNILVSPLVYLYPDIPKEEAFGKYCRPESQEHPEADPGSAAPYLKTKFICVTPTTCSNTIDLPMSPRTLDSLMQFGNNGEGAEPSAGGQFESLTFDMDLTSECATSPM

Stat5 = experiment: In vitro Stat5 DNA-binding activity assay, EMSA with MGFe probe; parameters: species or system mouse; conditions: pre-incubated 30 min before MGFe probe
Protocol: as §1
Nuclear extract preparation and gel shift assays—Nuclear extract preparation from NIH3T3 stimulated by rhIL-6, NIH3T3/hEGFR stimulated by rhEGF, v-Src-transformed fibroblasts (NIH3T3/v-Src) or tumor cell lines and electrophoretic mobility shift assay were carried out as previously described (Turkson et al., 1998; Garcia et al., 1997; Yu et al., 1995). […]

Stat3 [2] = biological target: T3, Stat3; experiment: In vitro Stat3 DNA-binding activity assay, EMSA with hSIE probe; conditions: pre-incubated 30 min before hSIE probe
Protocol: as §1, §2
Compounds from the NCI 2000 diversity set were screened for inhibition of Stat3 signaling in an in vitro DNA-binding activity assay based on analysis by electrophoretic mobility shift assay (EMSA). A platinum (IV) complex, PLATINUM-401 (NSC 295558) (FIG. 1E), was identified as a potent inhibitor of Stat3 and was further characterized for its anti-Stat3 properties. In the in vitro DNA-binding activity assay, nuclear extracts of equal total protein containing active Stat1, Stat3 and Stat5 were pre-incubated with different concentrations of PLATINUM-401 for 30 min prior to incubation with a [^32P]-labeled oligonucleotide, the m67 high affinity sis-inducible element (hSIE) probe that binds Stat1 and Stat3, or the mammary gland factor element (MGFe) that binds Stat1 and Stat5. Samples were then subjected to EMSA.

N.N.[Cl][Pt][Cl] [Cisplatin, reference compound]
effect on DNA-binding activity of Stat1:Stat1 homodimer (Stat1): no detectable effect
effect on E2F1 DNA-binding activity (E2F1): no detectable effect
effect on Stat3 activity (Stat3 [1]): no effect
effect on DNA-binding activity of Stat5:Stat5 dimer (Stat5): no detectable effect
effect on DNA-binding activity of Stat3:Stat3 homodimer (Stat3 [2]): no detectable effect
